# Measured values: PMC6736568, “Discovery of Novel Anti-cryptosporidial Activities From Natural Products by in vitro High-Throughput Phenotypic Screening” (Frontiers in Microbiology, 2019)
# Counter-ions that a name gives are not always drawn. Like-named read-outs stand apart in the source and are kept apart here.
# Key:
# in vitro = settings: for cytotoxicity at 41 h, 10 µM: human
# Cryptosporidium parvum = assay: qRT-PCR assay of the growth of C. parvum in vitro in HCT-8 host cells (primary and secondary screening, EC50); format: cell-based; settings: Cryptosporidium parvum, HCT-8; for inhibition at 10 µM: primary screening at 10 uM, read-out: Inhibition (%); for inhibition at 3.3 µM: secondary screening at 3.3 uM, read-out: % Inhibition (3.3 uM)
# [1] = primary screening at 10 uM, treated vs control
"Hs18S ΔCT (HCT-8 host cells (Hs18S); human, 41 h, 10 μM)",Compound,"cytotoxicity at 41 h, 10 µM (in vitro)",inhibition at 10 µM (Cryptosporidium parvum),cytotoxicity at 10 µM (in vitro),Hs18S ΔCT (HCT-8 host cells (Hs18S); [1]),inhibition at 3.3 µM (Cryptosporidium parvum),Hs18S ΔCT (HCT-8 host cells (Hs18S))
1.02,COC(=O)c1c(C)cc(OC(=O)c2c(C)cc(O)c(C=O)c2O)c(C)c1O [ATRANORIN],50.7%,-45.9%,,,,
0.19,C#CCCCCCCCCCCCC(O)CC(O)COC(C)=O (stereo not drawn) [AVOCADYNE ACETATE],12.2%,15.8%,,,,
0.03,O=C(O)CCCCCCCC(=O)O [AZELAIC ACID],1.8%,6.72%,,,,
-0.57,CCCCCCCCCCCCCCCCCCOCC(O)CO (stereo not drawn) [BATYL ALCOHOL],-48%,41.3%,,,,
0.13,NC[C@H]1O[C@H](O[C@H]2[C@H](O)[C@@H](O[C@H]3O[C@H](CO)[C@@H](O)[C@H](N)[C@H]3O)[C@H](N)C[C@@H]2N)[C@H](N)[C@@H](O)[C@@H]1O [BEKANAMYCIN SULFATE],8.7%,4.16%,,,,
-0.38,C[N+](C)(C)CC(=O)O [BETAINE HYDROCHLORIDE],-30%,19.9%,,,,
-0.01,C=CC1=C(C)/C(=C/c2[nH]c(Cc3[nH]c(/C=C4\NC(=O)C(C)=C4C=C)c(C)c3CCC(=O)O)c(CCC(=O)O)c2C)NC1=O [BILIRUBIN],-0.9%,-7.55%,,,,
-0.16,CCc1ccc2c(O)c3c(cc2c1C(=O)OC)C(=O)c1c(O)ccc(O)c1C3=O [BISANHYDRORUTILANTINONE],-12%,24.5%,,,,
0.60,COC(=O)/C=C/C(C)=C\C=C\C(C)=C\C=C\C=C(C)\C=C\C=C(C)\C=C\C(=O)O [BIXIN],34.2%,49.3%,,,,
-0.07,COC(=O)C[C@H]1C(C)(C)C(=O)[C@@H]2CC3C4=CC(=O)O[C@@H](c5ccoc5)[C@]4(C)CC[C@@H]3[C@@]1(C)C2=O (stereo partly drawn) [CARAPIN],-5.2%,30.7%,,,,
-0.10,Cc1c(C(=O)O)c(O)cc2c1C(=O)c1c(O)c([C@@H]3O[C@H](CO)[C@@H](O)[C@H](O)[C@H]3O)c(O)c(O)c1C2=O [CARMINIC ACID],-7.5%,-24.9%,,,,
0.08,NCCC(=O)N[C@@H](Cc1cnc[nH]1)C(=O)O [CARNOSINE],5.5%,41.1%,,,,

# The next lines start with the molecule.
Compound,"Hs18S ΔCT (HCT-8 host cells (Hs18S); human, 41 h, 10 μM)","cytotoxicity at 41 h, 10 µM (in vitro)",inhibition at 10 µM (Cryptosporidium parvum),cytotoxicity at 10 µM (in vitro),Hs18S ΔCT (HCT-8 host cells (Hs18S); [1]),inhibition at 3.3 µM (Cryptosporidium parvum),Hs18S ΔCT (HCT-8 host cells (Hs18S))
CN1[C@@H]2CC[C@H]1C[C@@H](OC(=O)C(CO)c1ccccc1)C2 (stereo partly drawn) [ATROPINE SULFATE],,,3.7%,16.3%,0.26,,
C=CCCCCCCCCCCCC(O)CC(O)COC(C)=O (stereo not drawn) [AVOCATIN A],0.00,-0.1%,46%,,,,
C/C=C(\C)C(=O)O[C@H]1C[C@@H](OC(C)=O)[C@@]2(C(=O)OC)CO[C@H]3[C@@H](O)[C@@](C)([C@]45O[C@@]4(C)[C@H]4C[C@@H]5O[C@@H]5OC=C[C@@]54O)[C@H]4[C@]1(CO[C@]4(O)C(=O)OC)[C@@H]32 [AZADIRACHTIN],0.00,-0.1%,23.7%,,,,
CC(=O)O[C@H]1C(=O)[C@@]2(C)[C@H]([C@H](OC(=O)c3ccccc3)[C@]3(O)C[C@H](O)C(C)=C1C3(C)C)[C@]1(OC(C)=O)CO[C@@H]1C[C@@H]2O [BACCATIN III],,,1.76%,5.2%,0.08,,
O=C(O)[C@H]1O[C@@H](Oc2cc3oc(-c4ccccc4)cc(=O)c3c(O)c2O)[C@H](O)[C@@H](O)[C@@H]1O [BAICALIN],,-17.1%,-13%,,-0.23,,
S=C=NCc1ccccc1 [BENZYL ISOTHIOCYANATE],,32.8%,91.8%,,0.57,14%,
COc1c2ccoc2cc2oc(=O)ccc12 [BERGAPTEN],,,-22.3%,4.3%,0.06,,
COc1c(O)cc2c(c1O)[C@@H]1O[C@H](CO)[C@@H](O)[C@H](O)[C@H]1OC2=O [BERGENIN],0.38,23.1%,36%,,,,
C=C(C)[C@@H]1CC[C@]2(C(=O)O)CC[C@]3(C)[C@H](CC[C@@H]4[C@@]5(C)CC[C@H](O)C(C)(C)[C@@H]5CC[C@]43C)[C@@H]12 [BETULINIC ACID],,,33%,-17.4%,-0.23,,
C=C(C)[C@@H]1CC[C@]2(CO)CC[C@]3(C)[C@H](CC[C@@H]4[C@@]5(C)CC[C@H](O)C(C)(C)[C@@H]5CC[C@]43C)[C@@H]12 [BETULIN],,,36.9%,-40.4%,-0.49,,
O=C(O)CCCC[C@@H]1SC[C@@H]2NC(=O)N[C@@H]21 [BIOTIN],,,11.9%,-18.4%,-0.24,,
CC(C)(c1ccc(O)cc1)c1ccc(O)cc1 [BISPHENOL A],-0.20,-15%,-35.2%,,,,
COc1cc2c(cc1O)C[C@H]1c3c(cc(O)c(OC)c3-2)CCN1C [BOLDINE],,,-28.6%,-26.4%,-0.34,,
O=C1C=C2CC3(O)COc4cc(O)ccc4C3=C2C=C1O (stereo not drawn) [BRAZILEIN],0.03,2.2%,-12.2%,,,,
Oc1ccc2c(c1)OC[C@]1(O)Cc3cc(O)c(O)cc3[C@H]21 [BRAZILIN],-0.12,-8.9%,8.3%,,,,
COc1cc2c(cc1OC)[C@@]13CCN4CC5=CCO[C@H]6CC(=O)N2[C@H]1[C@H]6[C@H]5C[C@H]43 [BRUCINE],,,49.9%,-8.2%,-0.11,,
COC(=O)C[C@H]1C2(C)CC34OC5(C)O[C@@]6([C@H](OC(C)=O)C(OC(C)=O)[C@]7(C)C(/C(=C(/O)C(C)C)C(=O)O[C@H]7c7ccoc7)[C@@]6(O5)[C@H](OC(C)=O)[C@@]3(O)C2OC(=O)C(C)C)[C@]14C (stereo partly drawn) [BUSSEIN],-0.33,-25.3%,85.1%,,,34%,
O=C(O)/C=C/c1ccc(O)c(O)c1 [CAFFEIC ACID],-0.34,-26.2%,18.9%,,,,
Cn1c(=O)c2c(ncn2C)n(C)c1=O [CAFFEINE],,,3.94%,16.9%,,,0.27
CC[C@@]1(O)C(=O)OCc2c1cc1n(c2=O)Cc2cc3ccccc3nc2-1 [CAMPTOTHECIN],,,76%,60.8%,1.35,59%,
N=C(N)NOCC[C@H](N)C(=O)O [CANAVANINE],,,-3.4%,18.4%,0.29,,
COc1cc(CNC(=O)CCCC/C=C/C(C)C)ccc1O [CAPSAICIN],,,-54.2%,0.1%,0.00,,
CC1=C(/C=C/C(C)=C/C=C/C(C)=C/C=C/C=C(C)/C=C/C=C(C)/C=C/C(=O)[C@]2(C)C[C@@H](O)CC2(C)C)C(C)(C)C[C@H](O)C1 [CAPSANTHIN],-0.08,-5.5%,-5.31%,,,,
